EP0110955B1, “BRAIN-SPECIFIC DRUG DELIVERY” (UNIVERSITY OF FLORIDA, priority 1982, dated 1983)

Columns and labels:
[1] = Chemical oxidation by hydrogen peroxide and silver nitrate; assay type: physicochemical; conditions: H2O2 or alcoholic AgNO3 solution
Procedure: The stability of the 1,4-dihydropyridine derivatives (5) was determined in the presence of the oxidizing agents, alcoholic AgN03 and hydrogen peroxide. The in vitro rates of oxidation of the 1,4-dihydropyridine derivative (5c) in 80% plasma, 20% brain homogenate, 20% liver homogenate and in whole blood were determined.
To 10 ml of 30% H202 was added 0.2 g of the dihydropyridine derivative (products of Examples 5 or 8). The mixture was stirred and samples were taken to check the UV spectrum.
To 5 ml of saturated methanolic AgN03 solution was added 1 ml of 5% methanolic solution of the dihydropyridine derivative. The mixture was shaken and left for 5 min for complete precipitation of silver, centrifuged and an aliquot was taken to check the UV spectrum. Complete oxidation to the quaternary salts was observed.

serum prolactin = experiment: In vivo effect on pituitary prolactin secretion (17-β-estradiol primed male rats); conditions: Intravenous administration, 1 mg/kg dose level
Description: Adult male rats (Charles Rivers, CD-1) weighing 200 to 225 g were provided food and water ad libitum for at least one week period to experimentation. To elevate serum prolactin levels, each rat received a single s.c. implant of a Silastic tube (1.57 mm interior diameter, 5 mm x 3.15 mm overall size) packed with crystalline 17-,8-estradiol. Two days later the rats were lightly anesthetized with ether and a small incision was made over the right jugular vein for intravenous (LV.) administration of the test drugs. Compound 6a was injected at a dose of 1 mg/kg body weight/ml saline and groups of six rats were decapitated at 15, 30, 60 and 120 min later to collect blood samples. Control rats (time 0) received an I.V. injection of the saline vehicle and were decapitated 30 min later. Compound 5c was dissolved in 10% ethanol in saline and was injected IV. Rats were decapitated at 15, 30 and 120 min later. Control (time 0) animals received the 10% ethanol vehicle and were sampled 30 min later.
Trunk blood was collected, allowed to clot for 2h and the serum was separated and stored at -20 ° C for subsequent assay for prolactin concentrations. Each serum sample was assayed in duplicate by the doubleantibody radioimmunoassay procedure described by the National Pituitary Agency Hormone Distribution Program. Serum prolactin concentrations are expressed in terms of the PRL-RP-2 reference preparation provided. The intraassay coefficient of variation for 10 replicate samples of pooled serum obtained from male rats was 13.8%.
The effects of compounds 5c and 6a on serum prolactin concentrations were evaluated by one-way analysis of variance and Student-Newman Keuls tests. A probability level of less than 0.05 was selected for significance. See FIGURE 7 and the discussion thereof hereinabove.

oxidation to the corresponding quaternary salt 6c [1]: quantitatively oxidized
Structure (SMILES): CN1C=CCC(C(=O)NCCc2ccc(OC(=O)C(C)(C)C)c(OC(=O)C(C)(C)C)c2)=C1 [5c, 1-Methyl-3-(N-[β-(3,4-dipivalyloxyphenyl)-ethyl]}carbamoyl-1,4-dihydropyridine]
time through which the reduction of serum prolactin was maintained (serum prolactin): ≥ 120 min
decrease in serum prolactin concentrations (serum prolactin; male rats exposed to 17-β-estradiol): 79%
